Reference: patent publication US20040043380A1, “T cell line and use thereof” (priority 2000, published 2004)
Where two headings read alike, the source gives them in different places.

Tested on: HIV-1 BaL strain
Assay: Anti-HIV-1 activity: alkaline phosphatase reporter in MOLT-4/CCR5/LTR-SEAP cells infected with HIV-1 BaL strain
Format: cell-based
Settings: for EC50: read-out: EC50 (activity of inhibiting viral growth by 50%); for EC90: read-out: EC90 (activity of inhibiting viral growth by 90%)
Experimental: The alkaline phosphatase activity was measured by using Great EscAPe SEAP Detection Kit manufactured by Clontech. Fifty microliters of a diluent was added to 15 μl of the culture supernatant and incubated at 65° C. for 30 minutes. The reaction solution was cooled to room temperature, and then 50 μl of the reaction solution was transferred to a white plate, and 50 μl of an assay buffer was added thereto and incubated at room temperature for 5 minutes. Fifty microliters of a luminescence substrate was added thereto, incubated at room temperature for 10 minutes, and measured for chemiluminescence by a luminometer.
A mixture of 2×10^4of MOLT-4/CCR5/LTR-SEAP cells, 1000 CCID50 (cell culture infective dose 50%) of the virus and a test compound (Table 1) at various concentrations was cultured at 37° C. in 5% CO2 gas for 5 days. A quarter of the culture was subcultured for 5 days. On the tenth day after the infection, the culture supernatant was recovered, and the alkaline phosphatase activity was measured. The anti-HIV-1 activity (the inhibition rate) of a test compound was calculated from the following formula:
Inhibition rate (%)=(1−(chemiluminescence^1/chemiluminescence^2))×100
Chemiluminescence^1=chemiluminescence with addition of a test compound (ii)−chemiluminescence without viral infection (iii).
Chemiluminescence^2=chemiluminescence without addition of a test compound (i)−chemiluminescence without viral infection (iii).

[1] = Human immunodeficiency virus 1, BAL
[2] = MOLT-4/CCR5/LTR-SEAP cells, 1000 CCID50 HIV-1 BaL strain, alkaline phosphatase activity in culture supernatant on tenth day after infection

| EC50 [2] | EC90 [2] | SMILES | EC50 [1] | EC90 [1] | EC50 (Human immunodeficiency virus 1, MOLT-4/CCR5/LTR-SEAP cells, 1000 CCID50 HIV-1 BaL strain, alkaline phosphatase activity in culture supernatant on tenth day after infection) |
| --- | --- | --- | --- | --- | --- |
| – | – | Cc1cn([C@H]2C=C[C@@H](CO)O2)c(=O)[nH]c1=O [Compound 1, 2′,3′-didehydro-3′-deoxythymidine] | 16 nM | 260 nM | – |
| – | – | Cc1ccnc2c1NC(=O)c1cccnc1N2C1CC1 [Compound 2, 11-cyclopropyl-5,11-dihydro-4-methyl-6H-dipyrido[3,2-b:2′,3′-e] [1,4]diazepin-6-one] | – | 350 nM | 40 nM |
| – | – | Cc1c(O)cccc1C(=O)N[C@@H](CSc1ccccc1)[C@H](O)CN1C[C@H]2CCCC[C@H]2C[C@H]1C(=O)NC(C)(C)C [Compound 3, (-)-(3S,4aS,8aS)-N-tert-butyl-2-[(2R,3R)-2-hydroxy-3-(3-hydroxy-2-methylbenzoylamino)-4-(phenylthio)butyl]decahydroisoquinoline-3-carboxamide monomethanesulfonate] | 0.67 nM | 170 nM | – |
| 21 nM | 680 nM | Cc1ccc(-c2ccc3c(c2)C=C(C(=O)Nc2ccc(C[N+](C)(C)C4CCOCC4)cc2)CCC3)cc1 [Compound 4, N,N-dimethyl-N-(4-(((2-(4-methylphenyl)-6,7-dihydro-5H-benzocyclohepten-8-yl)carbonyl)-N-(4-tetrahydropyranyl)ammonium chloride] | – | – | – |
